Where “and” joins values, the source holds several entries; their conditions need not be identical. Identical values can stand only once.
How the values were obtained:
[1] = instrument: DT, stepped-field
[2] = instrument: DT, single field
[3] = instrument: DT, single field, calibrated with Agilent tune mix (Agilent)
[4] = [M+H]+; instrument: TW; calibrated with phosphatidylcholines (ESI+) and phosphatidylethanolamines (ESI-)
[5] = [M+Na]+; instrument: DT; stepped-field

SMILES	collision cross section (N2) ([2]; [M+NH4]+)	collision cross section (N2) ([2]; [M+Na]+)	collision cross section (N2) ([3]; [M+NH4]+)	also measured
CCCCCC/C=C\CCCCCCCC(=O)OC[C@@H](O)COP(=O)(O)O [LPA(16:1)]	–	–	–	collision cross section (N2) ([1]; [M-H]-): 191.1 Å²
CCCCCCCCCCCCCCCCCC(=O)O[C@H](CO)COP(=O)(O)O [LPA(18:0)]	–	–	–	collision cross section (N2) ([1]; [M-H]-): 206.2 Å²
CCCCCCCCCCCCCCCCCC(=O)OC[C@@H](O)COP(=O)(O)OC[C@@H](O)CO [LPG(18:0)]	–	–	–	collision cross section (N2) ([1]; [M-H]-): 221.9 Å²
CCCCCCCC/C=C\CCCCCCCC(=O)OC[C@@H](O)COP(=O)(O)O[C@H]1C(O)C(O)C(O)[C@@H](O)C1O (some centres undefined) [LPI(18:1)]	–	–	–	collision cross section (N2) ([1]; [M-H]-): 233.4 Å²
CCCCC/C=C\C/C=C\CCCCCCCCCC(=O)O[C@H](COC(=O)CCCCCCCCCCC)COP(=O)(O)O [PA(16:1/16:1)]	–	–	–	collision cross section (N2) ([1]; [M-H]-): 250 Å²
CCCCC/C=C\C/C=C\CCCCCCCCCCCC(=O)O[C@H](COC(=O)CCCCCCCCCCC)COP(=O)(O)O [PA(16:1/18:1)]	–	–	–	collision cross section (N2) ([1]; [M-H]-): 257 Å²
CCCCCCC/C=C\CCCCCCCC(=O)O[C@H](COC(=O)CCCCCCCCCCCC)COP(=O)([O-])OCC[N+](C)(C)C [PC(14:0/16:1)]	–	–	–	collision cross section (N2) ([1]; [M+H]+): 283.6 Å²
CCCCCCCCCCCCCCCC(=O)OC[C@H](COP(=O)([O-])OCC[N+](C)(C)C)OC(=O)CCCCCCCCCCCCC [PC(30:0)]	–	–	–	collision cross section (N2) ([2]; [M+H]+): 276.5 Å² and 277.83 Å²; collision cross section (N2) ([3]; [M+H]+): 276.8 Å²
CCCCCCCCCCCCCCCCCCCC(=O)O[C@H](COC(=O)CCCCCCCCCCC)COP(=O)([O-])OCC[N+](C)(C)C [PC(32:0)]	–	–	–	collision cross section (N2) ([2]; [M+H]+): 282.65 Å² and 284.23 Å²; collision cross section (N2) [4]: 281 Å²; collision cross section (N2) ([3]; [M+H]+): 283.4 Å²
CCCCC/C=C\C/C=C\C/C=C\CCCCC(=O)O[C@H](COCCCCCCCCCCCCCCCC)COP(=O)([O-])OCC[N+](C)(C)C [PC(o34:3)]	–	–	–	collision cross section (N2) ([1]; [M+H]+): 294 Å²
CCCCC/C=C\C/C=C\C/C=C\C/C=C\CCCC(=O)O[C@H](COCCCCCCCCCCCCCCCC)COP(=O)([O-])OCC[N+](C)(C)C [PC(o36:4)]	–	–	–	collision cross section (N2) ([1]; [M+H]+): 297.2 Å²
CCCCCCCCCCCCC=CC[C@@H](O)[C@H](COP(=O)([O-])OCC[N+](C)(C)C)NC(=O)CCCCCCCCCCCCC [SM(32:1)]	–	–	–	collision cross section (N2) ([2]; [M+H]+): 275.46 Å²; collision cross section (N2) ([3]; [M+H]+): 276.6 Å²
CCCCCCCCCCCCC=CC[C@@H](O)[C@H](COP(=O)([O-])OCC[N+](C)(C)C)NC(=O)CCCCCCCCCCCCCCC [SM(34:1)]	–	–	–	collision cross section (N2) ([2]; [M+H]+): 281.13 Å²; collision cross section (N2) ([3]; [M+HCOO]-): 280.9 Å²; collision cross section (N2) ([3]; [M+H]+): 283.9 Å²; collision cross section (N2) [5]: 285.1 Å²
CCCCCCCCCCCCC=CC[C@@H](O)[C@H](COP(=O)([O-])OCC[N+](C)(C)C)NC(=O)CCCCCCCCCCCCCCCCC [SM(36:1)]	–	–	–	collision cross section (N2) ([2]; [M+H]+): 286.91 Å²; collision cross section (N2) ([3]; [M+HCOO]-): 286.4 Å²; collision cross section (N2) ([3]; [M+H]+): 289.1 Å²; collision cross section (N2) ([3]; [M+Na]+): 290 Å²; collision cross section (N2) [5]: 292.4 Å²
CCCCCCCCCCCCC=CC[C@@H](O)[C@H](COP(=O)([O-])OCC[N+](C)(C)C)NC(=O)CC=CCCCCCCCCCCCCCCCCCC [SM(40:2)]	–	–	–	collision cross section (N2) ([2]; [M+H]+): 298.58 Å²; collision cross section (N2) ([3]; [M+H]+): 298.4 Å²; collision cross section (N2) [5]: 301.7 Å²
CCCCC/C=C\C/C=C\C/C=C\CCCCCCCCC(=O)OC[C@@H](COC(=O)CCCCCCCCCCC)OC(=O)CCCCCCCCCCC [TG(46:3)]	297.58 Å² and 299.43 Å²	297 Å² and 298.89 Å²	297.1 Å²	–
CCCCC/C=C\C/C=C\C/C=C\CCCCCCCCC(=O)OC[C@@H](COC(=O)CCCCCCCCCCCC)OC(=O)CCCCCCCCCCCC [TG(48:3)]	304.89 Å² and 307.09 Å²	304.27 Å² and 306.32 Å²	304.8 Å²	–

The next lines start with results.

collision cross section (N2) ([2]; [M+NH4]+)	collision cross section (N2) ([2]; [M+Na]+)	collision cross section (N2) ([3]; [M+NH4]+)	SMILES	also measured
–	311.82 Å² and 313.77 Å²	313 Å²	CCCCCCCCC/C=C\CCCCCCCC(=O)OC[C@@H](COC(=O)CCCCCCCCCCCCCC)OC(=O)CCCCCCCCCCCCCC [TG(49:1)]	–
–	309.35 Å² and 311.09 Å²	310.5 Å²	CCCC/C=C\CCCCCCCC(=O)OC[C@H](COC(=O)CCCCCCCCCCCCCCCCCCCC)OC(=O)CCCCCCC/C=C\CCCC [TG(49:2)]	–
–	308.43 Å² and 310.33 Å² and 312.33 Å²	309.5 Å²	CCCCC/C=C\C/C=C\C/C=C\C/C=C\CCCCCC(=O)OC[C@@H](COC(=O)CCCCCCCCCCCCC)OC(=O)CCCCCCCCCCCCC [TG(50:4)]	–
–	308.34 Å² and 309.51 Å²	–	CCCCC/C=C\C/C=C\C/C=C\C/C=C\CCCC(=O)OC[C@@H](COC(=O)CCCCCCCCCCC)OC(=O)CCCCCCC/C=C\CCCCCCCC [TG(50:5)]	–
312.57 Å²	–	–	CCCCC/C=C\C/C=C\CCCCCCCC(=O)OC[C@@H](COC(=O)CCCCCCC/C=C\CCCCC)OC(=O)CCCCCCC/C=C\C/C=C\CCCCC [TG(51:5)]	–
–	319.25 Å² and 320.86 Å² and 321.71 Å²	–	CCCCCCCC/C=C\CCCCCCCCCC(=O)OC[C@@H](COC(=O)CCCCCCCCCCC)OC(=O)CCCCCCCCC/C=C\CCCCCCCC [TG(52:2)]	–
–	314.5 Å² and 316.78 Å²	317.6 Å²	CCCCC/C=C\C/C=C\C/C=C\C/C=C\CCCC(=O)OC[C@@H](COC(=O)CCCCCCCCCCCCC)OC(=O)CCCCCCCCCCCCCCCCC [TG(52:4)]	–
318.08 Å² and 320.09 Å² and 324.43 Å²	319.39 Å²	319.5 Å²	CCCCC/C=C\C/C=C\C/C=C\C/C=C\CCCC(=O)OC[C@@H](COC(=O)CCCCCCCCCCCCCC)OC(=O)CCCCCCCCCCCCCCCCC [TG(53:4)]	–
331.43 Å²	–	–	CCCCCCCCCCCCCCCCCCCCC(=O)OC[C@@H](COC(=O)CCCCCCCCCCC)OC(=O)CCCCCCCCCCCCCCCCCCCC [TG(54:0)]	–
321.8 Å² and 324.34 Å² and 326.13 Å²	320.63 Å² and 322.94 Å²	–	CCCCC/C=C\C/C=C\C/C=C\C/C=C\CCCC(=O)OC[C@@H](COC(=O)CCCCCCCCCCCCC)OC(=O)CCCCCCCCCCCCCCCCCCC [TG(54:4)]	–
317.23 Å² and 320 Å²	316.19 Å²	318 Å²	CC/C=C\C/C=C\C/C=C\C/C=C\CCCCC(=O)OC[C@@H](COC(=O)CCCCCCCCCCCCCCCCC)OC(=O)CCCC/C=C\C/C=C\C/C=C\CCCCC [TG(54:7)]	–
–	327.06 Å² and 327.86 Å²	–	CCCC/C=C\C/C=C\CCCCCCCC(=O)OC[C@H](COC(=O)CCCCCCCCC/C=C\CCCCCCCCCC)OC(=O)CCCCCCC/C=C\C/C=C\CCCC [TG(56:5)]	–
–	326.57 Å² and 325 Å²	328.3 Å²	CC/C=C\C/C=C\C/C=C\C/C=C\C/C=C\CCCCCC(=O)OC[C@@H](COC(=O)CCCCCCC/C=C\CCCCC)OC(=O)CCCCCCCCCCCCCCCCCC [TG(56:6)]	–
338.57 Å² and 340.8 Å²	–	334.6 Å²	CCCCCCCCCC/C=C\CCCCCCCCCC(=O)OC[C@@H](COC(=O)CCCCCCCCCCCC)OC(=O)CCCCCCCCC/C=C\CCCCCCCCCC [TG(57:2)]	–
336.68 Å² and 339.26 Å²	–	332.9 Å²	CCCCC/C=C\C/C=C\CCCCCCCCCCCC(=O)OC[C@@H](COC(=O)CCCCCCCCCCCC)OC(=O)CCCCCCCCC/C=C\CCCCCCCCCC [TG(57:3)]	–
334.57 Å² and 337.31 Å²	–	–	CCCCC/C=C\C/C=C\C/C=C\CCCCC(=O)O[C@H](COC(=O)CCCCCCC/C=C\CCCCCCC)COC(=O)CCCCCCCCCCCCCCCCCCCCC [TG(57:4)]	–
341.17 Å² and 343.91 Å² and 338.53 Å²	–	337.8 Å²	CCCCCCCCCC/C=C\CCCCCCCCCC(=O)OC[C@@H](COC(=O)CCCCCCCCCCCCC)OC(=O)CCCCCCCCC/C=C\CCCCCCCCCC [TG(58:2)]	–
333.74 Å²	–	–	CC/C=C\C/C=C\C/C=C\C/C=C\C/C=C\C/C=C\CCC(=O)OC[C@@H](COC(=O)CCCCCCCCCCCCCCC)OC(=O)CCCCCCCCCCCCCCCCCCC [TG(58:6)]	–
346.03 Å²	–	–	CCCCCCCCC/C=C\CCCCCCCC(=O)OC[C@H](COC(=O)CCCCCCCCCCCCCCCCCCCCC)OC(=O)CCCCCCC/C=C\CCCCCCCCC [TG(60:2)]	–
344.73 Å² and 347.66 Å² and 343.58 Å²	–	–	CCCCCC/C=C\CCCCCCCC(=O)OC[C@H](COC(=O)CCCCCCCCC/C=C\CCCCCCCCCC)OC(=O)CCCCCCCCC/C=C\CCCCCCCCCC [TG(60:3)]	–
342.69 Å² and 347.03 Å²	–	340.7 Å²	CCCCC/C=C\C/C=C\CCCCCCCCCC(=O)O[C@H](COC(=O)CCCCCCC/C=C\CCCCCCCC)COC(=O)CCCCCCCCCCC/C=C\CCCCCCCC [TG(60:4)]	–

Source: the C3SDB collision cross section collection
